What follows are compounds tested against T1, A2a receptors (Rattus norvegicus, UniProt P30543) (assay: radioligand binding, displacement of specific [3H]CGS 21680 binding in rat striatal membranes). Details: Table 3; [3H]CGS 21680, rat striatal membranes; read-out: Ki rA2a.
T1 construct: Displacement of specific [^3 H]; from tissue; host or cells: rat striatal membranes
T1 sequence (P30543 whole entry): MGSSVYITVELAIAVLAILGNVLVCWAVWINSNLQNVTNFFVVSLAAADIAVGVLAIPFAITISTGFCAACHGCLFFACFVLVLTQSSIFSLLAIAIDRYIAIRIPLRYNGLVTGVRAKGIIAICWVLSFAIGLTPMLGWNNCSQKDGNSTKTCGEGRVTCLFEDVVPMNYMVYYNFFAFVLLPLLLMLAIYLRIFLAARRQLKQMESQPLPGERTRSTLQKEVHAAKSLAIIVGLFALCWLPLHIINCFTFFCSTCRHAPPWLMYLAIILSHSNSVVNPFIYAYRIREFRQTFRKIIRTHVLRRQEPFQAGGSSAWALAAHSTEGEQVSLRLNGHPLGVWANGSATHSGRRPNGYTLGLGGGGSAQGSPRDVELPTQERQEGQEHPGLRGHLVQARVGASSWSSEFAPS
Procedure: ^b Displacement of specific [^3 H]
or as a percentage of specific binding displaced at 100 μM.
`CCOc1cc(O)c2c(=O)c(OCC)c(-c3ccccc3)oc2c1` [Compound 3b, 3,7-Diethoxy-5-hydroxyflavone] was tested, and the Ki was 63.8 ± 18.8 µM.

Same assay, conditions: Table 6; [3H]CGS 21680, rat striatal membranes; read-out: K2 (rA2a)
`O=c1c(O)c(-c2ccc(O)c(O)c2)oc2cc(O)cc(O)c12` [Compound 37, quercetin, reference compound] gave a Ki of 6.99 ± 0.89 µM.

Same assay, conditions: Table 9; 10^-4 M; read-out: % of specific binding displaced rA2A
`COCCOC(=O)C1=C(C)NC(C)=C(C(=O)OC)C1C` (racemic) [Compound 53, 3-methyl,5-(2-methoxy)ethyl 2,4,6-trimethyl-1,4(R,S)-dihydropyridine-3,5-dicarboxylate] gave an inhibition at 100 µM of 19%.

Same assay, conditions: Table 9; [3H]CGS 21680, rat striatal membranes; read-out: Ki rA2A
`COC(=O)C1=C(C)NC(C)=C(C(=O)OCc2ccccc2)C1C` (racemic) [Compound 54, 3-methyl,5-benzyl 2,4,6-trimethyl-1,4(R,S)-dihydropyridine-3,5-dicarboxylate] gave a Ki of 9.72 µM. Compound `CCCCC1=C(C(=O)OCC)C(C)C(C(=O)OCC)=C(C)N1` (racemic) [Compound 77, 3,5-diethyl-2,4-dimethyl-6-butyl-1,4(R,S)-dihydropyridine-3,5-dicarboxylate] has a Ki of 38 ± 10.6 µM. `CCOC(=O)C1=C(C)NC(C)=C(C(=O)OC)C1CC(C)CCC=C(C)C` (racemic) [Compound 58] gave a Ki of 23.1 µM. `CCOC(=O)C1=C(C)NC(c2ccccc2)=C(C(=O)OCC)C1C` (racemic) [Compound 78, 3,5-diethyl-2,4-dimethyl-6-phenyl-1,4(R,S)-dihydropyridine-3,5-dicarboxylate] was tested, and the Ki was 35.9 µM. With `CCOC(=O)C1=C(C)NC(C)=C(C(=O)OC)C1c1ccccc1C(F)(F)F` (racemic) [Compound 68, 3-methyl-5-ethyl-2,6-dimethyl-4-(2-α,α,α-trifluoromethylphenyl)-1,4(R,S)-dihydropyridine-3,5-dicarboxylate] the Ki was 20.7 µM. `CCCC1C(C(=O)OC)=C(C)NC(C)=C1C(=O)OCC` (racemic) [Compound 57, 3-methyl,5-ethyl 2,6-dimethyl-4-propyl-1,4(R,S)-dihydropyridine-3,5-dicarboxylate] was tested, and the Ki was 11.5 µM. `CCOC(=O)C1=C(C)NC(C)=C(C(=O)OC)C1c1ccc(OC)cc1` (racemic) [Compound 71, 3-methyl-5-ethyl-2,6-dimethyl-4-(4-methoxyphenyl)-1,4(R,S)-dihydropyridine-3,5-dicarboxylate] gave a Ki of 12.7 ± 3.8 µM. For `CCOC(=O)C1=C(C)NC(C)=C(C(=O)OC)C1C` (racemic) [Compound 52, 3-Methyl-5-ethyl 2,4,6-trimethyl-1,4(R,S)-dihydropyridine-3,5-dicarboxylate], the Ki was over 100 µM. `CCOC(=O)C1=C(C)NC(C)=C(C(=O)OCCCSc2ccccc2)C1C` (stereo not shown) [Compound 55] was tested, and the Ki was 7.1 µM. With `CCOC(=O)C1=C(C)NC(C)=C(C(=O)OC)C1CCc1ccccc1` (stereo not shown) [Compound 74] the Ki was 6.71 ± 2.06 µM. Work on `CCOC(=O)C1=C(C)NC(C)=C(C(=O)OCC)C1c1cccc([N+](=O)[O-])c1` [Compound 62] yielded a Ki of 18.2 µM. `CCOC(=O)C1=C(C)NC(C)=C(C(=O)OC)C1CC` (racemic) [Compound 56, 3-Methyl-5-ethyl-2,6-dimethyl-4-ethyl-1,4(R,S)-dihydropyridine-3,5-dicarboxylate] gave a Ki of 9.56 ± 2.69 µM.

Same assay, conditions: Table 10; [3H]CGS 21680, rat striatal membranes; read-out: Ki rA2a
Work on `CCOC(=O)c1c(C)nc(-c2ccccc2)c(C(=O)OCC)c1C` [Compound 81] yielded a Ki of 28.4 µM.

Same assay, conditions: Table 11; 10^-4 M; read-out: % inhibition rA2A
`CCOC(=O)C1=C(C)NC(c2ccoc2)=C(C(=O)OCC)C1/C=C/c1ccccc1` (stereo not shown) [Compound 92] was tested, and the inhibition at 100 µM was 35 ± 6%. With `CCOC(=O)C1=C(C)NC(c2ccccc2)=C(C(=O)OCC)C1/C=C/c1ccccc1OC` (stereo not shown) [Compound 94] the inhibition at 100 µM was 17 ± 12%. `CCOC(=O)C1=C(C)NC(c2ccc(Cl)cc2)=C(C(=O)OCC)C1/C=C/c1ccccc1` (stereo not shown) [Compound 90] showed an inhibition at 100 µM of 12 ± 7%. Compound `CCOC(=O)C1=C(C)NC(C)=C(C(=O)OCc2ccccc2)C1/C=C/c1ccccc1` (stereo not shown) [Compound 85] has an inhibition at 100 µM of 14.4 ± 4%. `CCOC(=O)C1=C(C)NC(c2ccc(C)cc2)=C(C(=O)OCC)C1/C=C/c1ccccc1` (stereo not shown) [Compound 88] gave an inhibition at 100 µM of 37%.

Same assay, conditions: Table 11; 10^-4 M; read-out: displacement of specific binding rA2A
Compound `CCOC(=O)C1=C(C)NC(c2ccc(OC)cc2)=C(C(=O)OCC)C1/C=C/c1ccccc1` (stereo not shown) [Compound 89] has an inhibition at 100 µM of under 10%. `CCOC(=O)C1=C(C)NC(c2ccsc2)=C(C(=O)OCC)C1/C=C/c1ccccc1` (stereo not shown) [Compound 93] gave an inhibition at 100 µM of under 10%. Compound `CCOC(=O)C1=C(C)NC(c2ccccc2)=C(C(=O)OCC)C1/C=C/c1ccccc1[N+](=O)[O-]` (stereo not shown) [Compound 95] has an inhibition at 100 µM of under 10%.

Same assay, conditions: Table 11; [3H]CGS 21680, rat striatal membranes; read-out: Ki rA2A
`CCOC(=O)c1c(C)nc(-c2ccccc2)c(C(=O)OCC)c1/C=C/c1ccccc1` [A] gave a Ki of 2.6 µM. Work on `CCOC(=O)C1=C(C)NC(c2ccccc2)=C(C(=O)OCc2ccccc2)C1C` (stereo not shown) [Compound 87] yielded a Ki of 3.15 µM. In the case of `CCOC(=O)C1=C(C)NC(c2ccccc2)=C(C(=O)OCC)C1CC` (stereo not shown) [Compound 86], the Ki is reported as 14.5 µM. `CCOC(=O)C1=C(C)NC(c2ccccc2)=C(C(=O)OCC)C1C=C(c1ccccc1)c1ccccc1` (stereo not shown) [Compound 97] gave a Ki of 8 µM.

Same assay, conditions: Table 12; 10^-4 M
With “3,5-Diethyl 2,6-dimethyl-4-(2-thienyl)-1,4-(±)-dihydropyridine-3,5-dicarboxylate [Compound 114]” the “% inhibition rA2A” value was 36%.

Same assay, conditions: Table 12; 10^-4 M; read-out: % inhibition rA2A
`CCOC(=O)C1=C(c2ccccc2)NC(C)=C(C(=O)OC(C)(C)C)C1C#Cc1ccccc1` (racemic) [Compound 133, 3-t-Butyl 5-ethyl 2-methyl-4-phenylethynyl-6-phenyl-1,4-(±)-dihydropyridine-3,5-dicarboxylate] was tested, and the inhibition at 100 µM was 20 ± 2%. In the case of `CCOC(=O)C1=C(C)NC(c2ccccc2)=C(C(=O)OCC[Si](C)(C)C)C1C#Cc1ccccc1` (racemic) [Compound 129, 3-Ethyl 5-(2-trimethylsilyl)-ethyl 2-methyl-4-phenylethynyl-6-phenyl-1,4-(±)-dihydropyridine-3,5-dicarboxylate], the inhibition at 100 µM is reported as 18 ± 5%. In the case of `CCOC(=O)C1=C(C)NC(c2ccccc2)=C(C(=O)OCC)C1c1cccnc1` (racemic) [Compound 112, 3,5-Diethyl 2-methyl-4-(3-pyridyl)-6-phenyl-1,4-(±)-dihydropridine-3,5-dicarboxylate], the inhibition at 100 µM is reported as 40%. With `CCOC(=O)C1=C(C)NC(c2ccccc2)=C(C(=O)SCC)C1C#Cc1ccccc1` (racemic) [Compound 130a, 3-Ethyl 5-thioethyl 2-methyl-4-phenylethynyl-6-phenyl-1,4(±)-dihydropyridine-3,5-dicarboxylate] the inhibition at 100 µM was 17%. With `CCNC(=O)C1=C(C)NC(c2ccccc2)=C(C(=O)OCC)C1C#Cc1ccccc1` (racemic) [Compound 134, 5-Ethoxycarbonyl-2-methyl-4-phenylethynyl-6-phenyl-1,4-(±)-dihydropyridine-3-carboxylic ethyl amide] the inhibition at 100 µM was 19 ± 6%. For `CCNC(=O)C1=C(c2ccccc2)N(COCC)C(C)=C(C(=O)OCC)C1C#Cc1ccccc1` (stereo not shown) [Compound 140], the inhibition at 100 µM was 35%. Work on `CCOC(=O)C1=C(C)NC(c2ccccc2)=C(C(=O)OCC)C1c1ccccn1` (racemic) [Compound 111, 3,5-Diethyl 2-methyl-4-(2-pyridyl)-6-phenyl-1,4-(±)-dihydropridine-3,5-dicarboxylate] yielded an inhibition at 100 µM of 25%. `CCNC(=O)C1=C(c2ccccc2)NC(C)=C(C(=O)OCC)C1C#Cc1ccccc1` (racemic) [Compound 132, 3-Ethoxycarbonyl-2-methyl-4-phenylethynyl-6-phenyl-1,4(±)-dihydropyridine-5-carboxylic ethyl amide] gave an inhibition at 100 µM of 47%. For `CCOC(=O)C1=C(c2ccccc2)NC(C)=C(C(=O)OC[C@H](OC)c2ccccc2)C1C#Cc1ccccc1` (mixture of isomers) [Compound 128, 3-(2-Methoxy-2-phenyl)-ethyl 5-Ethyl 2-methyl-4-phenylethynyl-6-phenyl-1.4-(±)-dihydropyridine-3,5-dicarboxylate], the inhibition at 100 µM was 33%. For `CCOC(=O)C1=C(c2ccccc2)NC2=C(C(=O)CCC2)C1C#Cc1ccccc1` (racemic) [Compound 136, Ethyl 3-oxo-1,4,5,6,7,8-hexahydroquinoline-2-methyl-4-phenylethynyl-6-phenyl-1,4-±-dihydropyridin-5-carboxylate], the inhibition at 100 µM was 22 ± 4%. Compound `CCOC(=O)C1=C(C)NC(c2ccccc2)=C(C(=O)OCC)C1C#Cc1ccccc1` (stereo not shown) [Compound 109] has an inhibition at 100 µM of 25 ± 3%.

Same assay, conditions: Table 12; 10^-4 M; read-out: displacement of specific binding rA2A
Work on `CCOC(=O)C1=C(C)NC(c2ccccc2)=C(C(=O)OCC)C1c1cc2ccccc2o1` (racemic) [Compound 116, 3,5-Diethyl 2-methyl-4-(2-benzofuryl)-6-phenyl-1,4-(±)-dihydropridine-3,5-dicarboxylate] yielded an inhibition at 100 µM of under 10%. `CCOC(=O)C1=C(C)NC(c2ccccc2)=C(C(=O)OCC)C1c1ccccc1` (racemic) [Compound 110, 3,5-Diethyl 2-methyl-4,6-diphenyl-1,4-(±)-dihydropyridine-3,5-dicarboxylate] was tested, and the inhibition at 100 µM was under 10%. For `CCOC(=O)C1=C(C)NC(c2ccccc2)=C(C(=O)OCC)C1c1ccco1` (stereo not shown) [Compound 115], the inhibition at 100 µM was under 10%.

Same assay, conditions: Table 12; [3H]CGS 21680, rat striatal membranes; read-out: Ki rA2A
Compound `CCOC(=O)C1=C(C)NC(c2ccccc2)=C(C(=O)OCC)C1c1ccncc1` (racemic) [Compound 113, 3.5-Diethyl 2-methyl-4-(4-pyridyl)-6-phenyl-1,4(±)-dihydropyridine-3.5-dicarboxylate] has a Ki of 44.7 ± 3.7 µM. In the case of `CCOC(=O)C1=C(c2ccccc2)NC(C)=C(C(=O)SCC)C1C#Cc1ccccc1` (stereo not shown) [Compound 130b], the Ki is reported as 5.15 ± 1.83 µM.

Same assay, conditions: Table 14; 10^-4 M; read-out: % inhibition rA2A
With `CCOC(=O)C1=C(c2ccccc2)NC(C)=C(C(=O)OCC(O)CO)C1C#Cc1ccccc1` (stereo not shown) [Compound 213a] the inhibition at 100 µM was 39 ± 8%.

Same assay, conditions: Table 14; 10^-4 M; read-out: displacement of specific binding rA2A
With `CCOC(=O)C1=C(c2ccccc2)NC(C)=C(C(=O)OCC(O)CO)C1C#Cc1ccccc1` (stereo not shown) [Compound 212a] the inhibition at 100 µM was under 10%.

Same assay, conditions: read-out: % inhibition rA2A
With `CCOC(=O)C1=C(C)NC(c2ccccc2)=C(C(=O)OCC)C1C#Cc1ccccc1` (racemic) [Compound 98] the inhibition at 100 µM was 26%. With `CCOC(=O)C1=C(c2ccccc2)NC(C)=C(C(C)=O)C1C#Cc1ccccc1` (racemic) [Compound 135] the inhibition at 100 µM was 17 ± 7%.

— patent publication US6066642A, “Dihydropyridine-, pyridine-, benzopyran-4-one- and triazoloquinazoline derivative, their preparation and their use as adenosine receptor antagonists” (priority 1998, dated 2000)
